For the experiment, the system named is Mycobacterium tuberculosis strain EH 4.0 (361.269). Briefly: Test 4: MIC determination, resazurin fluorescence, strain EH 4.0. The settings on record: Mycobacterium tuberculosis, read-out: pIC50, Test 4, M. tuberculosis strain EH 4.0 (361.269) (converted). It counts as cell-based. An excerpt:
TEST 4 (See Also Test 1 Above; in this Test a Different Strain of Mycobacterium tuberculosis Strain is Employed)
Appropriate solutions of experimental and reference compounds were made in 96 well plates with 7H9 medium. Samples of Mycobacterium tuberculosis strain EH 4.0 (361.269) were taken from cultures in stationary growth phase. These were first diluted to obtain an optical density of 0.3 at 600 nm wavelength and then diluted 1/100, resulting in an inoculum of approximately 5×10 exp5 colony forming units per well. Plates were incubated at 37° C. in plastic bags to prevent evaporation. After 7 days, resazurin was added to all wells.
For orientation: The colour change of resazurin is a common sign of viable cells or microbes.

Molecules are shown by their SMILES. A value given as a limit tells only on which side of the number the result lay.

On to `CCc1nc2ncc(Cl)cn2c1C(=O)NCc1ccc(N2CC3(CC(c4ccc(S(F)(F)(F)(F)F)cc4)C3)C2)cc1` [Compound 66], for which the IC50 is 0.00794 µM.

As to `O=C(NCc1ccc(C2CC3(C2)CN(c2ccc(OC(F)(F)F)cc2)C3)cc1)c1cc2c([nH]1)CCCC2` [Compound 115], the IC50 was 3.16 µM.

With `O=C(NCC1CC2(CCN(c3ccc(OC(F)(F)F)cc3)CC2)C1)c1cc2c([nH]1)CCCC2` [Compound 44], the IC50 was 7.94 µM.

On to `CCc1nn2c(C)ccnc2c1C(=O)NCC1CC12CCN(c1ccc(OC(F)(F)F)cc1)CC2` (centres unmarked) [Compound 108], for which the IC50 was > 12.6 µM.

As to `CCc1c(C(=O)NCc2ccc(N3CC4(C3)CN(c3ccc(OC(F)(F)F)cc3)C4)cc2)c2cc(Cl)ccc2n1C` [Compound 80], the IC50 is > 12.6 µM.

`O=C(NCC1CC12CCN(c1ccc(OC(F)(F)F)cc1)CC2)c1cc2c([nH]1)CCCC2` (centres unmarked) [Compound 40]: the IC50 was > 12.6 µM.

Consider `CCc1nc2sc(C)cn2c1C(=O)NCC1CC12CCN(c1ccc(OC(F)(F)F)cc1)CC2` (centres unmarked) [Compound 64], for which the IC50 is 0.1 µM.

Take `CCc1c(C(=O)NCC2CC23CCN(c2ccc(OC(F)(F)F)cc2)CC3)c2ccncc2n1C` (centres unmarked) [Compound 49]: the IC50 is > 12.6 µM.

`CCc1c(C(=O)NCC2CC3(CCN(c4ccc(OC(F)(F)F)cc4)CC3)C2)c2cc(Cl)cnc2n1C` [Compound 43]: the IC50 is > 12.6 µM.

On to `CCc1c(C(=O)NCC2CC23CCN(c2ccc(OC(F)(F)F)cc2)CC3)c2cc(Cl)ccc2n1C` (centres unmarked) [Compound 39], for which the IC50 is > 12.6 µM.

As to `CCc1nc2ccn(C)cc-2c1C(=O)NCc1ccc(N2CC3(C2)CN(c2ccc(OC(F)(F)F)cc2)C3)cc1` [Compound 51], the IC50 was 6.31 µM.

Regarding `CCc1nc2cn(C)ccc-2c1C(=O)NCC1CC2(CCN(c3ccc(OC(F)(F)F)cc3)CC2)C1` [Compound 50], the IC50 was > 12.6 µM.

For `O=C(NCC1CC12CCN(c1ccc(OC(F)(F)F)cc1)CC2)c1cc2n(c1)CCCC2` (centres unmarked) [Compound 33], the IC50 is > 12.6 µM.

Take `CCc1nc2cn(C)ccc-2c1C(=O)NCc1ccc(N2CC3(CC(F)C3)C2)cc1` [Compound 34]: the IC50 is > 12.6 µM.

Consider `CCc1nc2ccc(Cl)cn2c1C(=O)NCc1ccc(N2CC3(CC(Oc4ccc(C(F)(F)F)cc4)C3)C2)cc1` [Compound 72], for which the IC50 is 0.01 µM.

Consider `COc1ccn2nc(C)c(C(=O)NCc3ccc(C4CC5(C4)CN(c4ccc(OC(F)(F)F)cc4)C5)cc3)c2c1` [Compound 56], for which the IC50 was 0.00631 µM.

For `CCc1nc2sc(C)cn2c1C(=O)NCc1ccc(C2CC3(C2)CN(c2ccc(OC(F)(F)F)cc2)C3)cc1` [Compound 67], the IC50 is 0.01 µM.

For the molecule `O=C(NCc1ccc(N2CC3(C2)CN(c2ccc(OC(F)(F)F)cc2)C3)cc1)c1cc2c([nH]1)CCCC2` [Compound 35], the IC50 was 7.94 µM.

As to `CCc1nn2ccc(C)nc2c1C(=O)NCC1CC12CCN(c1ccc(OC(F)(F)F)cc1)CC2` (centres unmarked) [Compound 106], the IC50 was > 12.6 µM.

As for `CCc1nc2n(c1C(=O)NCc1ccc(N3CC4(C3)CN(c3ccc(OC(F)(F)F)cc3)C4)cc1)CCN(C)C2` [Compound 70], the IC50 was 0.316 µM.

Consider `CCc1nn2c(C)ccnc2c1C(=O)NCc1ccc(C2CC3(C2)CN(c2ccc(OC(F)(F)F)cc2)C3)cc1` [Compound 103], for which the IC50 was 7.94 µM.

For `O=C(NCc1ccc(N2CC3(CC(c4ccc(OC(F)(F)F)cc4)C3)C2)cc1)c1cc2n(c1)CCCC2` [Compound 45], the IC50 was 7.94 µM.

`CCc1nn2ccc(C)nc2c1C(=O)NCC1CC2(CCN(c3ccc(OC(F)(F)F)cc3)CC2)C1` [Compound 107]: the IC50 was > 12.6 µM.

Take `CCc1c(C(=O)NCc2ccc(N3CC4(CC(c5ccc(OC(F)(F)F)cc5)C4)C3)cc2)c2ccncc2n1C` [Compound 36]: the IC50 was 7.94 µM.

With `CCc1c(C(=O)NCc2ccc(C3CC4(C3)CN(c3ccc(OC(F)(F)F)cc3)C4)cc2)c2cc(Cl)ccc2n1C` [Compound 114], the IC50 is 12.6 µM.

Take `O=C(NCc1ccc(N2CC3(C2)CN(c2ccc(OC(F)(F)F)cc2)C3)cc1)c1cc2n(c1)CCCC2` [Compound 42]: the IC50 is 10 µM.

Turning to `CCc1nc2n(c1C(=O)NCC1CC3(CCN(c4ccc(OC(F)(F)F)cc4)CC3)C1)CCN(C)C2` [Compound 46], the IC50 is 7.94 µM.

For `CCc1c(C(=O)NCC2CC3(CCN(c4ccc(OC(F)(F)F)cc4)CC3)C2)c2ccncc2n1C` [Compound 52], the IC50 is 7.94 µM.

Regarding `CCc1nc2n(c1C(=O)NCc1ccc(C3CC4(C3)CN(c3ccc(OC(F)(F)F)cc3)C4)cc1)CCN(C)C2` [Compound 69], the IC50 is 0.0316 µM.

Consider `CCc1c(C(=O)NCC2CC23CCN(c2ccc(OC(F)(F)F)cc2)CC3)c2cc(Cl)cnc2n1C` (centres unmarked) [Compound 38], for which the IC50 is > 12.6 µM.

As for `CCc1c(C(=O)NCC2CC23CCN(c2ccc(OC(F)(F)F)cc2)CC3)c2cnccc2n1C` (centres unmarked) [Compound 55], the IC50 was > 12.6 µM.

In the case of `Cc1nc2ncc(Cl)cn2c1C(=O)NCC1CC2(CCN(c3ccc(OC(F)(F)F)cc3)CC2)C1` [Compound 60], the IC50 was 0.1 µM.

`CCc1nc2ccn(C)cc-2c1C(=O)NCC1CC2(CCN(c3ccc(OC(F)(F)F)cc3)CC2)C1` [Compound 109]: the IC50 was > 12.6 µM.

For `CCc1c(C(=O)NCc2ccc(N3CC4(C3)CN(c3ccc(OC(F)(F)F)cc3)C4)cc2)c2ccncc2n1C` [Compound 47], the IC50 was 6.31 µM.

Consider `O=C(NCc1ccc(N2CC3(CC(c4ccc(OC(F)(F)F)cc4)C3)C2)cc1)c1cc2c([nH]1)CCCC2` [Compound 37], for which the IC50 was 3.98 µM.

On to `CCc1nc2ccn(C)cc-2c1C(=O)NCC1CC12CCN(c1ccc(OC(F)(F)F)cc1)CC2` (centres unmarked) [Compound 53], for which the IC50 was > 12.6 µM.

In the case of `CCc1c(C(=O)NCC2CC3(CCN(c4ccc(OC(F)(F)F)cc4)CC3)C2)c2cnccc2n1C` [Compound 111], the IC50 was > 12.6 µM.

In the case of `CCc1nc2cnc(Cl)cn2c1C(=O)NCC1CC2(CCN(c3ccc(OC(F)(F)F)cc3)CC2)C1` [Compound 101], the IC50 is 1.58 µM.

For the molecule `CCc1nn2c(C)ccnc2c1C(=O)NCC1CC2(CCN(c3ccc(OC(F)(F)F)cc3)CC2)C1` [Compound 105], the IC50 was > 12.6 µM.

As for `CCc1nc2n(c1C(=O)NCC1CC3(CCN(c4ccc(OC(F)(F)F)cc4)CC3)C1)CCCC2` [Compound 61], the IC50 is 0.631 µM.

As to `COc1ccn2nc(C)c(C(=O)NCC3CC4(CCN(c5ccc(OC(F)(F)F)cc5)CC4)C3)c2c1` [Compound 59], the IC50 was 0.316 µM.

For `CCc1nc2ccn(C)cc-2c1C(=O)NCc1ccc(N2CC3(CC(c4ccc(OC(F)(F)F)cc4)C3)C2)cc1` [Compound 104], the IC50 is > 12.6 µM.

For `CCc1nn2ccc(C)nc2c1C(=O)NCc1ccc(N2CC3(CC(c4ccc(OC(F)(F)F)cc4)C3)C2)cc1` [Compound 97], the IC50 was > 12.6 µM.

Consider `CCc1nc2cnc(Cl)cn2c1C(=O)NCc1ccc(N2CC3(C2)CN(c2ccc(OC(F)(F)F)cc2)C3)cc1` [Compound 58], for which the IC50 is 0.1 µM.

For the molecule `CCc1nc2n(c1C(=O)NCC1CC13CCN(c1ccc(OC(F)(F)F)cc1)CC3)CCCC2` (centres unmarked) [Compound 48], the IC50 is 6.31 µM.

Consider `CCc1nc2ccc(Cl)cn2c1C(=O)NCc1ccc(N2CCC3(CC2)CC(F)C3)cc1` [Compound 81], for which the IC50 is 0.00501 µM.

Regarding `CCc1nn2c(C)ccnc2c1C(=O)NCc1ccc(N2CC3(CC(c4ccc(OC(F)(F)F)cc4)C3)C2)cc1` [Compound 98], the IC50 was > 12.6 µM.

The values are drawn from patent US20190330189A1, “ANTIBACTERIAL COMPOUNDS” (Janssen Sciences Ireland UC, priority 2015, published 2019).
